Data as given in patent US5859032A, “Pyridine derivative, anti-ulcer drug, and antibacterial drug” (priority 1996, dated 1999).

Experiments:
[1] = test system: isolated gastric fundic gland; assay: CAP: Acid Secretion Inhibition Test In Vitro ([14C]-aminopyrine uptake test); type: cell-based, Japanese White rabbit; conditions: Oryctolagus cuniculus, 40 min, 10^-5 M, histamine 10^-5 M, 37° C., read-out: CAP: acid secretion inhibitory rate
Method: CAP: Acid Secretion Inhibition Test In Vitro
The acid secretion inhibitory activity in a cell level is studied. It can also be used for studying the mechanism of the effect. […]
ii-a) Preparation of isolated gastric fundus gland suspension
First, an isolated gastric fundic gland sample was prepared. Namely, a male Japanese White rabbit (2.5 to 3 kg) was anesthetized to death with Nembutal™ and then the abdomen was incised. Immediately thereafter, the stomach was removed and, after its pyloric and cardiac antrum were severed, incised along its greater curvature into two sheets. The gastric contents adhering to the mucosal surface was washed out with ice-cooled PBS (-) and then carefully washed therein. The gastric wall was spread on a cork board with its mucosal surface facing up and the feed and mucus thereon were completely removed with sterile gauze. The mucosa was separated therefrom by a spatula and then collected in ice-cooled PBS (-). After being washed twice with PBS (-), the mucosa was minced into 2-3 mm^3 pieces by scissors. These pieces were further washed twice with a nutrient solution. The nutrient solution comprises 132.4 mM of NaCl, 5.4 mM of KCl, 5 mM of Na2 HPO4. 12H2 O, 1 mM of NaH2 PO4. 2H2 O, 1.2 mM of MgSO4, 1 mM of CaCl 2, 25 mM of HEPES, 2 mg/ml of glucose, and 1 mg/ml of BSA. Into 70 ml of the nutrient solution containing 1 mg/ml of collagenase, minced mucosal pieces were dispersed and intensely stirred in a conical flask with a stirrer at 37° C. for 40 to 60 minutes. During this period, 100% O2 was sprayed on the nutrient solution surface and the pH was appropriately measured such that it was immediately adjusted to pH 7.4, when the value was therebelow, with a base. The nutrient solution was added to the reaction solution so as to attain the total amount of about 200 ml. After being filtered through a mesh, the suspension was divisionally introduced into 50 ml centrifuge tubes and left for 15 minutes such that gastric fundic gland was deposited. The supernatant was repeatedly removed by an aspirator, dispersed in the nutrient solution, and then left such that the gastric fundic gland was washed three times. At this time, without using a pipette, the suspension was alternately introduced into two centrifuge tubes so as to effect dispersion. The number of cells was counted under microscope and adjusted to 1.6×10^6 cells/ml. […]
ii-b) [^14 C]-aminopyrine uptake test
Then, [^14 C]-aminopyrine uptake test was performed. After an Eppendorf tube was weighed, 10 μl (final concentration: 10^-5 M) of histamine dissolved in the above-mentioned nutrient solution, 10 μl (final concentration: 10^-5 M) of the test compound dissolved in DMSO, and 10 μl (final concentration: 0.05 μCi/ml) of [^14 C]-aminopyrine diluted with the nutrient solution were introduced therein and then 970 μl of the isolated gastric fundic gland suspension prepared above was added thereto. Subsequently, this mixture was shaken at 37° C. for 40 minutes at 125 cycles/minute. After being centrifuged for 30 minutes, 200 μl of its supernatant was collected into a mini-vial, while the rest was removed by an aspirator. The gland pellet was completely dried as the tube with its lid being opened was kept for one night in a drying oven at 80° C. and then the lid was closed and the weight was determined at room temperature. Then 100 μl of 1N KOH was added thereto and the tube with its lid being closed was treated at 60° C. for 1 to 2 hours so as to dissolve the pellet. Then, the contents thereof were transferred to a mini-vial. Into the mini-vial containing the supernatant or gland pellet, 4 ml of Atomlite™ was added and then the radioactivity was measured by a liquid scintillation counter. Here, after the radioactivity of the gland pellet was corrected by using a sample in which 20 mM of NaSCN was added so as to cancel the hydrogen ion concentration gradient, the integration ratio of aminopyrine specifically trapped by the gland pellet was calculated. […]

[2] = MTT: Cell Damaging and Protecting Effect Test; type: cell-based, Japanese White rabbit; conditions: rabbit, gastric mucosa cells, 10^-4 M, 37° C., smaller value is better, read-out: MTT: cell damaging rate
Source text: MTT: Cell Damaging and Protecting Effect Test
It is confirmed that there is no toxicity in cell level. Those having a toxicity in cell level are inappropriate as an anti-ulcer drug.
A male Japanese White rabbit (2.5 to 3 kg) was anesthetized to death by Nembutal™ and, immediately thereafter, its stomach was removed. The greater curvature of the stomach was incised so as to remove the stomach contents therefrom. After the mucosal surface was washed with HBSS (Hanks' Balanced Salt Solution), the stomach in ice-cooled HBSS was transferred to a laboratory. Then, after the pyloric antrum was removed, the gastric corpus mucosa was separated by a spatula and then minced into 2 to 3 mm^3 pieces in BME (Basal Medium Eagle). Thereafter, these pieces were shaken at 120 to 130 cycles/minute for 15 minutes at 37° C. in BME 60 ml containing 280 U/ml of dispase and 30 to 50 U/ml of collagenase. Here, the concentration of collagenase was appropriately changed for each lot in view of the state of cells. The pieces were washed twice with EBSS (Earle's Balanced Salt Solution) containing 1 mM of EDTA and then shaken in MEM (Minimum Essential Medium) containing 1 mM of EDTA at 37° C. for 5 minutes. Subsequently, they were shaken in the dispase and collagenase having the same concentrations as those mentioned above for 15 minutes so as to remove the supernatant and then further shaken at 37° C. for 50 to 60 minutes at 120 to 130 cycles/minute. Then, after being washed twice with HBSS, Ham F12 containing 2% of Ultrocer GT™ was used to attain the concentration of 1×10^6 cells/ml. Thus formed suspension was dispensed in each well of a 96-well plate by 200 μl. The plate was incubated in the atmosphere composed of 5% CO2 and 95% air at 37° C. for three days so as to attain a confluent state and then subjected to MTT assay.
The sample compound was dissolved in DMSO so as to attain a concentration of 10^-2 M and then diluted with HBSS containing 2% of Ultrocer G™ so as to attain a final concentration of 10^-4 M. To each group, which 8 wells were used for, 10 μl of MTT reagent was added immediately after 100 μl of the medium in each well was exchanged for same volume of the resulting solution of the sample compound. After being incubated in an atmosphere composed of 5% CO2 and 95% air at 37° C. for 4 hours, thus formed solution was centrifuged and then its supernatant was discarded. Subsequently, 100 μl of 100% ethanol was added to the residue so as to dissolve MTT formazan. Then, the absorbance (OD: 570 to 630) was measured by a microplate reader. This method utilizes a phenomenon in which MTT is changed to MTT formazan only by mitochondria of living cells so as to change color.
The cell damaging or cell protecting effect of the sample compound at the final concentration of 10^-4 M was expressed as cell damaging rate (%) as follows:
cell damaging rate (%)=(1-(absorbance in sample group/absorbance in control
Accordingly, the smaller value is better in the cell damaging rate.

mice = conditions: mouse, in vivo
Method: AT: Single Dose Toxicity Pretest
Male Slc:ICR mice (5-week-old) were used. Each group has 3 to 5 mice and each mouse was fasted, but allowed free access to water, for 4 to 5 hours from 9 a.m. in the test day. Then, 2,000 mg/10 ml/kg of the sample compound dissolved or suspended in an aqueous solution of 0.5% sodium carboxymethyl cellulose was orally administered thereto. To a control, only the vehicle was administered. […] The body weight was measured before and after the fasting as well as at the same time everyday. The dead animals were immediately subjected to autopsy and their organs were observed microscopically. Also, the living animals were sacrificed with ether or carbon dioxide one week after the administration and then their organs were observed microscopically.
The toxicity at the single dose of 2,000 mg/kg of the sample compound was expressed as being classified into 5 levels.
5: Mortality rate is 0%; no toxicity is found at all both in behavior and organs.
4: Mortality rate is 0%; while no toxicity is found in organs, slight toxicity is observed in behavior and body weight increase.
3: While there is a dead animal (though not all the animals are dead), no toxicity is found in organs.
2: Regardless of whether there is a dead animal or not, toxicity is found in organs.
1: All the animals are dead.

Row | Compound | inhibition at 10 µM [1] [%] | cytotoxicity at 4 h, 100 µM [2] [%] | AT: toxicity at the single dose (5 levels) (mice)
1 | COc1ccc(NCCNC(=O)c2ccc(OC/C=C(\C)CCC=C(C)C)cc2)nc1 [Example 8, 2-[2-(4-geranyloxybenzoylamino)ethylamino]-5-methoxypyridine] | 97 | -45 | 5
2 | CC(C)=CCC/C(C)=C/COc1ccc(C(=O)Nc2cccnc2)cc1 [Example 4, 3-(4-geranyloxybenzoylamino)pyridine] | 44 | 6 | 
3 | CC(C)=CCOc1ccc(OCC=C(C)C)c(C(=O)NCCc2ccncc2)c1 [Example 6, 4-[2-(2,5-diprenyloxybenzoylamino)ethyl]pyridine] | 100 | -94 | 
4 | CC(C)=CCC/C(C)=C/COc1ccc(C(=O)NCCc2ccncc2)cc1 [Example 2, 4-[2-(4-geranyloxybenzoylamino)ethyl]pyridine] | 99 | 7 | 5
5 | CC(C)=CCC/C(C)=C/COc1ccc(C(=O)NCCNc2cc(C)cc(C)n2)cc1 [Example 10, 2,4-dimethyl-6-[2-(4-geranyloxybenzoylamino)ethylamino]pyridine] | 101 | 65 | 4
6 | CC(C)=CCC/C(C)=C/COc1ccc(C(=O)NCC(=O)Nc2ccccn2)cc1 [Example 13, 2-[2-(4-geranyloxybenzoylamino)acetylamino]pyridine] | 31 | -36 | 5
7 | CC(C)=CCC/C(C)=C/COc1ccc(C(=O)NCCNc2cccnc2)cc1 [Example 7, 3-[2-(4-geranyloxybenzoylamino)ethylamino]pyridine] | 100 | 48 | 
8 | CC(C)=CCC/C(C)=C/COc1ccc(C(=O)NCc2ccncc2)cc1 [Example 3, 4-(4-geranyloxybenzoylaminomethyl)pyridine] | 99 | 16 | 5
9 | CC(C)=CCC/C(C)=C/COc1ccc(C(=O)NCCc2ccccn2)cc1 [Example 1, 2-[2-(4-geranyloxybenzoylamino)ethyl]pyridine] | 97 | 8 | 5
10 | COc1ccc(SCCNC(=O)c2ccc(OC/C=C(\C)CCC=C(C)C)cc2)nc1 [Example 11, 2-[2-(4-geranyloxybenzoylamino)ethylthio]-5-methoxypyridine] | 55 | -34 | 5
